Where “and” joins values, the source holds several entries; their conditions need not be identical. Identical values can stand only once. Where no end group is shown, it is not given here.
Legend:
Format in all cases: in vivo, mouse
mice = test: Food intake studies
Procedure: For acute studies, animals were singly housed and injected IP with saline or 1 mg/kg UCN2 (source). Food intake for the next 24 h was determined by measuring food weight in ceramic bowls within the cage. For the chronic studies, animals were singly housed and injected with Vehicle, EGFP.AAV, or UCN2.AAV. Food weight was measured in ceramic bowls every 24 h for 7 days.

male mice = test: Insulin tolerance test (ITT), blood glucose; parameters: dose or concentration left out as unconfirmed; settings: 0.05, 0.2
Procedure: All metabolic tests were performed using standard protocols on male littermates (aged: 10–14 weeks). For glucose tolerance tests (GTTs), animals were fasted for 8 h with ad libitum access to water. Fasting glucose measurements were taken before […] oral glucose dose. Blood glucose measurements were taken via tail nick using the AlphaTRAK 2 Glucose Monitoring System (Zoetis, Parsippany-Troy Hills, NJ) at 10, 30, 60, and 120 min after dose. Blood was collected for insulin measurement in EDTA tubes (Becton, Dickinson and Company, Franklin Lakes, NJ) and centrifuged to collect plasma (2000 g for 10 min at 4 °C), which was stored at −80 °C until analysis at 10, 30, 60, and 120 min after dose. Insulin levels were measured using an Ultrasensitive Mouse Insulin ELISA (ALPCO, Salem, NH), according to manufacturer’s instructions. For insulin tolerance tests (ITTs), animals were fasted for 8 h and blood glucose was measured before (0 min) and at 30, 60, 90, and 120 min following IP injection of 0.75 IU/kg of insulin (Humulin R, Eli Lilly, Indianapolis, IN). […]

[1] = Circulating (serum/plasma) UCN2 by ELISA
Procedure: Plasma UCN2 and UCN3 measurements were made via ELISA according to manufacturer’s instructions (Kamiya Biomedical Company, Seattle, WA). Blood was collected via intracardiac stick. For ob/ob and db/db studies, blood was collected during ad lib feeding. For acute UCN2 dosing, blood was collected 20 min after dosing with UCN2 (Bachem, Bubendorf, Switzerland) dissolved in saline.

[2] = test system: AKT1S1, IRS1, AKT phosphorylation; test: Western blot of p-AKT1S1, p-IRS1, p-AKT in gastrocnemius muscle
Procedure: Animal tissues were snap-frozen in liquid nitrogen and stored at −80 °C. Frozen tissues were homogenized in ice-cold RIPA buffer (Sigma Aldrich, St. Louis, MO), and protein concentrations were determined using a BCA protein assay (Thermo Fisher Scientific, Waltham, MA). Protein extracts were separated on NuPAGE 4–20% Bis-Tris gels (Bio-Rad, Hercules, CA) and blotted onto PVDF membranes (Bio-Rad, Hercules, CA). Membranes were blocked for 1 h at room temperature in TBST (0.1%) containing 5% milk. Membranes were then incubated overnight at 4 °C with primary antibodies against pSer183-AKT1S1, total AKT1S1, pSer3-IRS1, total IRS1, pSer473-AKT, and total AKT (Cell Signaling, Danvers, MA #5936, #2610, #2385, #2382, #4060, and #4691, respectively) diluted 1:1000. Following three washing steps with TBST (0.1%), membranes were incubated with HRP-conjugated secondary antibodies for 1 h at room temperature. After thorough washing, proteins were visualized with SuperSignal West Dura Extended Duration Substrate (Thermo Fisher Scientific, Waltham, MA) on the Bio-Rad ChemiDoc MP. Immunoreactive bands were quantified using Image J Software (NIH).

WT animals = test: Blood glucose and plasma insulin 15 min after intraperitoneal UCN2; settings: 1 mg/kg IP, 15 min post-dose; n = 5
Procedure: WT animals were injected IP with 1 mg/kg recombinant UCN2 or an equivalent volume of saline. Blood glucose and plasma insulin measurements were made pre-injection and 15 min post-dose. 20 min after the injection animals were euthanized and gastrocnemius muscle was dissected and snap-frozen in liquid nitrogen. The tissue was pulverized and homogenized in 700 ul SDS-buffer (0.1 M Tris/HCl 7.6, 4% SDS, 0.1 mM DTT), heated for 5 min at 95 °C and sonicated (Bioruptor®Plus Diagenode, 30 sec on-30sec off cycle for 10 cycles). After centrifugation for 10 min at 10,000 x g at 15 °C, the proteins in the supernatant were precipitated with 4X (volumes) ice-cold acetone (−20 °C) and stored at −20 °C overnight. The precipitates were centrifuged for 15 min at 10,000 × g, acetone was decanted, and the resulting pellets were dried for 10 min at room temperature. The pellet was resuspended in 500ul denaturing buffer (8 M urea and 10 mM Tris, pH 8.5) and sonicated (Bioruptor®Plus Diagenode, 30 s on-30 s off cycle for 5 cycles). The protein concentration was determined with a Bradford assay (Bio-Rad, Hercules, CA, USA). The proteins were reduced with dithiothreitol (DTT) 5 mM final concentration for 60 min at 37 °C and alkylated with iodoacetamide (8 mM final concentration) for 45 min at RT in the dark. […]

IVLSLDVPIGLLQILLEQARARAAREQATTNARILARVGHC-NH2 (C-terminus assumed) [UCN2, Urocortin 2]
Food Intake (mice; single IP dose 1 mg/kg UCN2, next 24 h, individual animals (Fig. 2K), 1 mg/kg): 0.27 g and 0.3 g and 0.24 g and 0.15 g and 0.38 g and 0.46 g and 0.59 g | food intake following UCN2 dosing (mice; single dose 1 mg/kg IP): decrease in food intake | effect of increasing doses in ITT (male mice): decreasing rates of glucose uptake in response to insulin injection | Serum [UCN2] ([1]; WT mice, 20 min after 1 mg/kg UCN2 IP, individual animals (Fig. 2A)): -7.638 log[M] and -7.693 log[M] and -7.457 log[M] and -7.301 log[M] and -7.207 log[M] and -7.27 log[M] and -7.25 log[M] and -7.2975 log[M] | circulating concentration of UCN2, average ([1]; mice, single IP 1 mg/kg, 20 min after injection, n = 8): −7.4 log[M] | level at time molar at 20 min ([1]; mouse, plasma, mice, single IP 1 mg/kg, 20 min after injection, n = 8, read-out: circulating concentration of UCN2, average): 40 nM | Relative pAKT1s1/AKT1s1 ([2]; Fig 5F, UCN2 vs Saline, individual samples): 0.4889 and 0.4355 and 0.6101 and 0.3366 | Relative pIRS1/IRS1 ([2]; Fig 5G, UCN2 vs Saline, individual samples): 0.5347 and 0.4912 and 0.4136 and 0.3459 | Relative pAKT/AKT ([2]; Fig 5H, UCN2 vs Saline, individual samples): 0.5139 and 0.5838 and 0.5951 and 0.5852 | AKT1S1, IRS1 and AKT phosphorylation, acute treatment ([2]; gastrocnemius, acute UCN2, Western blot): dephosphorylation | blood glucose levels after injection (WT animals): significantly increased blood glucose levels | plasma insulin after injection (WT animals): no significant difference
